This note sets out measurements from patent US20110212972A1, “Compositions and Methods for Treating Female Sexual Dysfunction” (Pfizer Inc, priority 2000, published 2011).

One assay concerns MDA-MB-231 cells. The assay can be described thus: Inhibition of in vitro human breast tumor cell growth, ER-negative MDA-MB-231. The format is cell-based. The following applies: MDA-MB-231 (ER-negative), 6 days incubation, direct cell counts. The procedure: (§1) The in vitro antiproliferative effects of (−)-cis-6-phenyl-5-[4-(2-pyrrolidin-1-yl-ethoxy)-phenyl]-5,6,7,8-tetrahydro-naphthalene-2-ol (PPTN) were tested using two types of human breast cancer cell lines: first, MCF-7 cells, which contain ER as well as progesterone receptors (PgR), and second, MDA-MB-231 cells, which lack ER and PgR, and enable the determination of an effect that is independent of the ER mechanism. The effect of PPTN on the growth of these different cell lines was determined by incubation of the cells with various compound concentrations for 6 days.
(§2) The antiproliferative effects were then determined by direct cell counts.

Another assay has as its system MCF-7 cells. The assay can be described thus: Inhibition of in vitro human breast tumor cell growth, ER-positive MCF-7. The format is cell-based. The following applies: MCF-7 (ER-positive), 6 days incubation, direct cell counts. The procedure: as §1, §2

Regarding `Oc1ccc2c(c1)CC[C@H](c1ccccc1)[C@@H]2c1ccc(OCCN2CCCC2)cc1` [PPTN, (−)-cis-6-phenyl-5-[4-(2-pyrrolidin-1-yl-ethoxy)-phenyl]-5,6,7,8-tetrahydro-naphthalene-2-ol], the “effect on cell proliferation” value in the assay on MDA-MB-231 cells is recorded as “did not inhibit cell proliferation”. In addition, in the assay on MCF-7 cells, the “IC50 for growth inhibition” value is on record as 3 to 5×10^−11 M and the “effect on cell growth” value was “inhibited the growth”.
